Reference: US20070185431A1, “Galvanic Current Skin Treatment” (priority 2006, published 2007)
“Also recorded” adds a separate entry of the source.

Key:
[1] = Franz cell skin penetration of the other compounds with and without current (Phoresor)
Text: Thus, for a 1% theobromine solution, a Tris-glycine buffer at pH 12 was chosen. […] By putting theobromine into 0.1N NaOH at pH 12, this compound is ionized to a negative charge. No information was readily available regarding the pKa of Ergothioneine (Thiotaine) but based on its structure, it would appear to have a relatively low pKa and thus be negatively charged at pH 8.0.
For experiments, the electrodes from the Phoresor were applied to the Franz unit with the negative electrode in contact with the skin's surface and in contact with the compound solution being applied. Each compound was tested on 5 skins for skin penetration without current and 5 skins for skin penetration with current.
Note that the time=0 for the bar graphs discussed below represents the time at which the galvanic current was terminated.
A 60 microliter solution of aminophylline in PBS (pH 7.0) gelled slightly with 0.5% HEC was applied to human breast skin mounted in Franz cell chambers. A 0.4 mAmp current was applied for either 6.25 minutes (for a 2.5 mAmp×time dose) or 12.5 minutes to produce a 5 mAmp×time dose. At 6 hours samples were withdrawn for analysis and a second dose applied only to the skin receiving a 2.5 mAmp×time pulse at T=0. Samples were withdrawn for analysis at T=12 hours and again at T=24 hours.
Thus, its rate of dissociation is not going to be high in an aqueous solvent. in order to shift the equilibrium to the anion form of theobromine we prepared a 1% solution in Tris-glycine buffer adjusted to pH 12 with IN NaOH. Franz studies were then carried out using a 2.5 mAmp×time pulse.

[2] = cited from earlier work
[3] = cited from earlier work; remark: listed apart in the source
[4] = Skin penetration of caffeine in modified Franz cells with galvanic current application device; assay type: in vitro ADME, human
Text: According to one embodiment, another method and apparatus relates to a modified Franz cell instrument and method of testing iontophoresis across a cellular membrane and the effects of an electrical current on the membrane after the electrical current has been removed. […] In this embodiment, a electrical current application device 18 is operably coupled to the Franz cell via a copper wire that connects the two electrodes of the device 18 to the Franz cell. In this embodiment, the negative electrode 16 contacts the surface of the cellular membrane via a copper wafer electrode while the positive electrode 14 is placed in the lower Franz fluid reservoir 12 to complete the circuit. Alternatively, any configuration that allows for application of an electrical current to the cellular membrane placed in the Franz cell is contemplated. According to one embodiment, the apparatus as set forth in FIG. 2 can be used to test the effects of applying electrical current to a cellular membrane.
To perform this examination, three modified Franz cells—each similar to the apparatus depicted in FIG. 2—were placed in series. […] As is understood in the art, 1 milliamp equals 1,000 microamps.
To determine the effectiveness of the current application device in enhancing the penetration of caffeine through human skin, a 1% caffeine solution was prepared in saline solution at a pH of 7.2 and an infinite dose (500 micro liters) applied to the surface of human skin mounted onto Franz cell units. One set of skin samples was left untreated to serve as the control group for passive skin penetration of caffeine. A second set was treated with one 3 minute cycle of the Galvanic unit delivering 120 microamps per skin. The standard convention for expressing the current “dose” the skin receives is Current×Time. Thus, the skin in this group received 360 microamp-minutes of current (120 microamps×3 minutes). A third group of skins were treated with 3 cycles of current (1080 microamp-minutes [shown as 1.1 mA]), and the fourth group received a dose of 4.32 mAmp-minutes (12 cycles at 3 minutes/cycle delivering 120 microamps).
Samples were collected at 6, 12 and 24 hours and the amount of caffeine present in the receptor fluid determined by HPLC.

[5] = Skin penetration of caffeine in Franz cells with iontophoretic instrument, pre-selected current dose; assay type: in vitro ADME, human
Method: For the first studies, Franz cells were dosed once with either: 1) no current (control), 2) 2 mAmp-minutes, 3) 5 mAmp-minutes, or 4)10 mAmp-minutes. Samples of the Franz receptor fluid were analyzed at 6, 12 and 24 hours after the current dose.
Because a consumer might use this product morning and evening, we separated the dose treatments by 10 hours. The experimental protocol involved applying a saline solution of 1% caffeine (pH 7.2) to human skins mounted in Franz cells. The groups were: 1) control-no dosing, 2) a dose of 2.5 mAmp-minute (0.375 mAmps for 6.67 minutes) repeated at 10 hours, and 3) a single 5 mAmp-minute. All groups contained 5 replicates. For these studies, the caffeine was only applied to the skin during the dosing phase. When a second current application was applied to the 2.5 mAmp-minute group at 10 hours, not only was the caffeine solution added to these skin samples, but it was also placed on the 5 mAmp-minute skins even though these were not treated again with current. This controlled for any skin penetration simply due to the presence of the caffeine solution on the skin. After dosing was completed any remaining caffeine solution was removed from the skin.
Because of the long duration of these studies, dosing was usually initiated at 7:00 am and 6 hours later the first samples were collected for analysis. At T=10 hours (5 pm) a second sample was collected and the 2.5 mAmp-minute group dosed a second time. At T=16 hours (11:00 pm) another sample was collected from the lower reservoir, and at T=24 the final samples were collected.
For this study, the caffeine solution was not removed from skins immediately after dosing but left on the skin for the duration of the experiment.
We conducted dose-response studies to begin to answer this question. For these studies, skins were dosed only once with either 0.6, 1.3, 2.5 or 5 mAmp-minutes with the current held constant at 375 uamps, the maximum output of the Galvanic unit. To each skin 400 microliters of a 1% caffeine in saline solution was applied. In order to minimize evaporation during the study, the caffeine solution was gelled slightly with hydroxyethylcellulose. Six hours after dosing, samples from the lower receptor fluid were collected and analyzed for caffeine.

CCOC(=O)c1cccnc1 [ethyl nicotinate]
skin penetration enhancement [1]: enhanced skin penetration
time after application at which compound is detectable in the lower reservoir fluid ([1]; human, 1 %): ≤ 2 h
time at which enhanced effect of current is detectable ([1]; human, 1 %): about 4 hour
amount of compound in the receptor fluid ([1]; human, 24 h, 1 %): over 1000 micrograms

NC(=O)NCCC[C@H](N)C(=O)O [Citrulline]
pKa [2]: 9.4

Cn1cnc2c1c(=O)[nH]c(=O)n2C [theobromine]
solubility [3]: virtually insoluble in any solvent except dilute alkali; also recorded: essentially insoluble in any solvent other than alkali
skin penetration from the solvent used ([1]; pH 12): relatively poorly
pKa [2]: 9.9

C[N+](C)(C)[C@@H](Cc1c[nH]c(=S)[nH]1)C(=O)[O-] [Thiotaine, Ergothioneine]
skin penetration to lower chamber reservoir without current ([1]; no current, 24 hours): no compound had penetrated the skin
relative skin permeability among the compounds studied ([1]; simple buffer systems): least permeable
levels in the lower reservoir with current ([1]; single dose of 2.5 mAmp×time, 12 and 24 hours): measurable Thiotaine levels in the lower reservoir

Cn1c(=O)c2c(ncn2C)n(C)c1=O [caffeine]
penetration enhancement of caffeine through the skin ([4]; 1 cycle (360 microamp-minutes)): ineffective in causing any detectable penetration enhancement
penetration enhancement of caffeine compared to control ([4]; 3 cycles (1080 microamp-minutes), 24 hours): some marginal enhancement of penetration; also recorded: some small enhancement in skin penetration
penetration enhancement of caffeine through human skin ([4]; 6 cycles (2.2 mAmp-minutes), 24 hours): did enhance delivery of caffeine
amount of caffeine that had penetrated skin relative to control group ([4]; 12 cycles (4.32 mAmp-minutes), 24 hours, 1% caffeine in saline pH 7.2): 6 times
time at which increase in skin penetration was detectable ([4]; 12 cycles (4.32 mAmps-min)): ≤ 6 h
skin penetration: two 2.5 mAmp-minute doses versus one dose [5]: significantly more skin penetration of caffeine than one dose
increase in the penetration of caffeine ([5]; 2 mAmp-minute dose, 6 hours after treatment): 1.5 fold
time post-dosing at which penetration enhancement was detectable ([5]; 2.5 and 5 mAmp-minute groups, caffeine removed after dosing): ≤ 6 h
increase in the amount of caffeine penetrating the skin ([5]; 5 mAmp-minute dose, 6 hours): 3 fold
amount of caffeine present in the receptor as fraction of applied dose ([5]; 5 mAmp-minute dose, 24 hours): 4 % of applied dose
time after dosing at which enhanced penetration can be detected ([5]; 5 mAmp-minute dose, caffeine solution left on skin): ≤ 3 h
increase in the amount of caffeine penetrating the skin ([5]; 10 mAmp-minute dose, 6 hours): 4 fold
amount of caffeine penetrated: 2.5 mAmp-minute dosed twice versus 5 mAmp-minute dosed once ([5]; 24 hours): no significant difference; also recorded: as much caffeine penetration as a single 5 mAmp-minute dose
effect of a second 5 mAmp-minute dose versus a single 5 mAmp-minute dose ([5]; 24 hours, caffeine left on skin): no additional accumulation of caffeine; also recorded: does not appear to significantly enhance caffeine skin penetration
caffeine in the receptor without current ([5]; control skins, no current, 3 hours): no presence of caffeine in the receptor
time after dosing at which skin penetration enhancement can be detected ([5]; single 2.5 mAmp-minute dose): ≤ 3 h
skin penetration enhancement ([5]; single dose of 0.6 mAmp-minutes at 375 uamps, 6 hours, gelled 1% caffeine): will enhance skin penetration
current level above which maximal skin penetration occurs (sigmoidal fit) ([5]; single dose, 6 hours): 3-5 mAmp-minutes
penetration enhancement of single 2.5 mAmp-minute dose relative to single 5 mAmp-minute dose ([5]; single doses): about 50%

Cn1c(=O)c2[nH]cnc2n(C)c1=O [aminophylline]
increase in skin flux [1]: only a modest increase in skin flux
skin penetration enhancement, FIG. 9A [1]: produced enhanced skin penetration
skin penetration without current [1]: relatively high skin penetration
enhancement in skin penetration over control values, extrapolated ([1]; human, 1 %): 23%
enhancement in skin penetration, extrapolated ([1]; human, 1 %): 9%
increase in skin penetration ([1]; human, 24 h, 1 %): approximately 1.7 fold
skin penetration: two treatments of 2.5 mAmp×time versus single 5 mAmp×time pulse ([1]; human, 24 h, 1 %, pH 7): did not equal the skin penetration seen with a single 5 amp×time pulse
pKa [2]: 5.0
